Experimental findings from ChEMBL document CHEMBL1201862, “PubChem BioAssay data set” (2004) are described below.

What all share (assay): NCI tumour cell line growth inhibition, 48 h
Experiment [1] relates to COLO 205.
Experiment [2] concerns KM12.
Experiment [3] concerns NCI/ADR-RES.
Experiment [4] concerns CCRF-CEM.
Experiment [5] has as its system CAKI-1.
The subject of experiment [6] is K562.
The test system of experiment [7] is EKVX.
Experiment [8] deals with PC-3.
In experiment [9] the test system is SW-620.
For experiment [10], the system named is T47D.
Experiment [11] has as its system SN12C.
Experiment [12] has as its system NCI-H522.
In experiment [13] the test system is IGROV-1.
Experiment [14] relates to M14.
Experiment [15] deals with HCT-116.
Experiment [16] relates to SK-MEL-2.
In experiment [17] the test system is SK-MEL-28.
Experiment [18] deals with OVCAR-4.
In experiment [19] the test system is OVCAR-5.

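Compound exposure: 48 hours, 5 concentrations, 96-well plates. GI50 = concentration required for 50% inhibition of growth.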 The source made the active and inactive calls. Rule as the data show it: active = GI50 up to about 1.1 µM and inactive = higher. Non-standard residues stand in square brackets, D forms with d. Residues, ends and D or L forms follow the SMILES beside them. *: point of attachment. X30 = COC1=CC(=O)N(C(=O)[C@@H](O*)C(C)C)[C@H]1Cc1ccccc1; NMeL = CN[C@@H](CC(C)C)C(=O)O; Cbz = O=C(OCc1ccccc1)* A value given as a limit tells only on which side of the number the result lay.

On to `COC1=CC(=O)N(C(=O)[C@@H](OC(=O)[C@@H]2CCCN2C(=O)[C@@H]2CCCN2C(=O)[C@H](CC(C)C)N(C)C(=O)[C@@H](NC(=O)[C@@H](NC(=O)OCc2ccccc2)C(C)C)C(C)C)C(C)C)[C@H]1Cc1ccccc1` (Cbz-VV[NMeL]PP-X30), for which the GI50 in experiment [1] was > 100 µM (inactive); in experiment [2] it was > 100 µM (inactive); in experiment [3], > 100 µM (inactive); in experiment [4], 35.3 µM (inactive); in experiment [5], > 100 µM (inactive); in experiment [6] it was > 100 µM (inactive). Besides, the GI50 in experiment [7] was > 100 µM (inactive); in experiment [8] it was 11.2 µM (inactive); in experiment [9] it was > 100 µM (inactive); in experiment [10] it was 68.2 µM (inactive); in experiment [11], 34.8 µM (inactive); in experiment [12] it was > 100 µM (inactive). The GI50 is 79.1 µM (inactive) in experiment [13]; 70.1 µM (inactive) in experiment [14]; 44.6 µM (inactive) in experiment [15]; 9.42 µM (inactive) in experiment [16]; > 100 µM (inactive) in experiment [17]; > 100 µM (inactive) in experiment [18]. Further, in experiment [19], the GI50 is > 100 µM (inactive).
As to `NCCCCN(CCCN)C(=O)c1ccccc1`, the GI50 in experiment [1], in experiment [2], in experiment [3], in experiment [4], in experiment [5] and in experiment [6] was > 100 µM (inactive) in each case. Moreover, the GI50 in experiment [7], in experiment [8], in experiment [9], in experiment [10], in [11] and in [12] was > 100 µM (inactive) each time. Further, the GI50 in experiment [13], in experiment [14], in experiment [15], in experiment [16], in experiment [17] and in experiment [18] was > 100 µM (inactive) throughout. Also, the GI50 in experiment [19] is > 100 µM (inactive).
As to `CCCCCCOc1ccc(C(=O)N(C)O)cc1`, the GI50 in [1] was 14.2 µM (inactive); in experiment [2] it was 24 µM (inactive); in experiment [3] it was 10.1 µM (inactive); in experiment [4], 1.85 µM (inactive); in experiment [5] it was 15.6 µM (inactive); in experiment [6], 8.83 µM (inactive). The GI50 in experiment [7] is 20.3 µM (inactive); in experiment [8], 12.1 µM (inactive); in [9], 10.2 µM (inactive); in experiment [10], 23.6 µM (inactive); in experiment [11], 11.9 µM (inactive); in [12] it was 9.86 µM (inactive). Besides, the GI50 in [13] was 11.5 µM (inactive); in [14], 12.6 µM (inactive); in experiment [15] it was 14.9 µM (inactive); in [16] it was 32.4 µM (inactive); in experiment [17], 40.7 µM (inactive); in experiment [18], 31.4 µM (inactive). The GI50 in experiment [19] is 67.3 µM (inactive).
For the compound `COc1ccc(O)c(/C=N/NC(=S)N2CCCCC2)c1`, the GI50 in experiment [1] is 2.98 µM (inactive); in experiment [2], 4.38 µM (inactive); in [3] it was 1.77 µM (inactive); in experiment [4], 0.569 µM (active); in experiment [5], 2.72 µM (inactive); in [6], 3.05 µM (inactive). Moreover, the GI50 in [7] is 4.38 µM (inactive); in experiment [8], 5 µM (inactive); in experiment [9], 2.88 µM (inactive); in experiment [10], 6.71 µM (inactive); in experiment [11], 4.92 µM (inactive); in experiment [12], 0.948 µM (active). Besides, the GI50 in [13] was 2.78 µM (inactive); in experiment [14], 0.592 µM (active); in experiment [15] it was 2.3 µM (inactive); in experiment [16], 25.1 µM (inactive); in experiment [17], 3.17 µM (inactive); in [18], 4.59 µM (inactive). In addition, in [19], the GI50 was 5.9 µM (inactive).
For `CC(NC1=NCCO1)c1ccco1` (stereo not given), the GI50 in [1] was 79.8 µM (inactive); in experiment [2] it was 20.3 µM (inactive); in experiment [3], > 100 µM (inactive); in [4], > 100 µM (inactive); in experiment [5], > 100 µM (inactive); in experiment [6] it was > 100 µM (inactive). In addition, the GI50 in experiment [7], in experiment [8], in experiment [9], in experiment [10], in experiment [11] and in [12] was > 100 µM (inactive) throughout. Also, the GI50 in [13] was > 100 µM (inactive); in [14], > 100 µM (inactive); in [15], > 100 µM (inactive); in experiment [16] it was 60.4 µM (inactive); in [17], > 100 µM (inactive); in experiment [18], > 100 µM (inactive). Moreover, the GI50 in experiment [19] is > 100 µM (inactive).
As to `O=C1N(C2CCCCC2)C(=O)N1C1CCCCC1`, the GI50 in [1] is 0.467 µM (active); in [2], 0.285 µM (active); in [3], 0.133 µM (active); in experiment [4], 0.04 µM (active); in [5], 1.04 µM (active); in experiment [6], 0.0875 µM (active). Besides, the GI50 in experiment [7] is 8.61 µM (inactive); in experiment [8] it was 0.233 µM (active); in experiment [9], 1.95 µM (inactive); in experiment [10], 0.56 µM (active); in experiment [11] it was 0.272 µM (active); in experiment [12] it was 0.328 µM (active). Moreover, the GI50 was 17.5 µM (inactive) in experiment [13]; 1.24 µM (inactive) in experiment [14]; 0.113 µM (active) in experiment [15]; 1.49 µM (inactive) in experiment [16]; 1.19 µM (inactive) in experiment [17]; 1.68 µM (inactive) in [18]. For the same compound, the GI50 in experiment [19] was 1.83 µM (inactive).
Regarding `CCCCC1CCCCCCc2[nH]c(/C=C3\N=C(c4ccc[nH]4)C=C3OC)cc21` (stereo not given), the GI50 is < 0.011 µM (active) in experiment [1]; < 0.01 µM (active) in experiment [2]; < 0.0169 µM (active) in experiment [3]; < 0.01 µM (active) in experiment [4]; 0.0502 µM (active) in [5]; < 0.01 µM (active) in [6]. The GI50 is < 0.0167 µM (active) in experiment [7]; < 0.0119 µM (active) in experiment [8]; < 0.01 µM (active) in experiment [9]; < 0.01 µM (active) in experiment [10]; < 0.0185 µM (active) in experiment [11]; < 0.016 µM (active) in experiment [12]. Further, the GI50 is < 0.0188 µM (active) in experiment [13]; 0.0136 µM (active) in experiment [14]; < 0.01 µM (active) in experiment [15]; < 0.0124 µM (active) in [16]; < 0.0162 µM (active) in [17]; < 0.0127 µM (active) in experiment [18]. Besides, in experiment [19], the GI50 is 0.116 µM (active).
`COc1cccc(C2c3cc4c(cc3OC(NNC(N)=O)C2C)OCO4)c1O` (stereo not given): the GI50 in experiment [1] is 1.78 µM (inactive); in experiment [2], 0.731 µM (active); in experiment [3] it was 3.36 µM (inactive); in [4], 0.929 µM (active); in experiment [5], 3.11 µM (inactive); in [6] it was 0.516 µM (active). Further, the GI50 in [7] was 8.26 µM (inactive); in experiment [8] it was 1.15 µM (inactive); in experiment [9] it was 0.569 µM (active); in experiment [10], 61 µM (inactive); in experiment [11], 2.65 µM (inactive); in experiment [12], 0.871 µM (active). The GI50 in [13] is 2.58 µM (inactive); in [14], 0.513 µM (active); in experiment [15], 0.834 µM (active); in experiment [16], 0.703 µM (active); in experiment [17], 1.99 µM (inactive); in experiment [18], 38.8 µM (inactive). In experiment [19], the GI50 is 6.12 µM (inactive).
As to `C=C1C(=O)OC2C1C(OC(=O)/C(C)=C/C)CC(O)(CCl)C1C(OC(C)=O)C=C(C)C21O` (stereo not given), the GI50 in experiment [1] was 8.3 µM (inactive); in experiment [2], 19.2 µM (inactive); in experiment [3], 16.3 µM (inactive); in experiment [4], 2.79 µM (inactive); in experiment [5], 7.11 µM (inactive); in experiment [6], 7.8 µM (inactive). For the same compound, the GI50 in [7] was 9.75 µM (inactive); in experiment [8], 16.1 µM (inactive); in [9], 3.98 µM (inactive); in [10], 18 µM (inactive); in experiment [11] it was 16.2 µM (inactive); in experiment [12], 1.99 µM (inactive). The GI50 in experiment [13] was 14.4 µM (inactive); in [14] it was 12.6 µM (inactive); in [15], 7.5 µM (inactive); in [16] it was 15.9 µM (inactive); in experiment [17], 10.5 µM (inactive); in [18], 17.2 µM (inactive). In addition, in experiment [19], the GI50 is 17.3 µM (inactive).
Regarding `C=C1c2nc3ccccc3n2C=C(c2ccc(OC)cc2)N1c1ccc(OCCN2CCOCC2)cc1`, the GI50 in [1] is 10.8 µM (inactive); in experiment [2], 15.8 µM (inactive); in experiment [3], 5.21 µM (inactive); in [4] it was 3.73 µM (inactive); in [5], 90.6 µM (inactive); in experiment [6] it was 7.62 µM (inactive). The GI50 was > 100 µM (inactive) in [7]; 9.51 µM (inactive) in experiment [8]; 44.3 µM (inactive) in experiment [9]; > 100 µM (inactive) in experiment [10]; > 61.8 µM (inactive) in [11]; 1.43 µM (inactive) in experiment [12]. Further, the GI50 in experiment [13] is > 100 µM (inactive); in experiment [14] it was 9.73 µM (inactive); in experiment [15] it was 21.9 µM (inactive); in experiment [16], 18.5 µM (inactive); in [17], 42.2 µM (inactive); in experiment [18] it was 11.1 µM (inactive). The GI50 in experiment [19] was > 100 µM (inactive).
